According to patent USRE32935E, “Non-toxic organotin stabilizers for vinyl chloride polymers” (M&T Chemicals, Inc., priority 1985, dated 1989):
Like-named read-outs stand apart in the source and are kept apart here.

Experiments:
[1] = test system: albino rats; experiment: acute oral median lethal dose in young male albino rats; assay type: in vivo, rat
Protocol: Young albino rats were used as the test animals. All animals were kept under observation for five days prior to experimental use, during which period they were checked for general physical health and suitability as test animals. The animals were housed in stock cages and were permitted a standard laboratory diet plus water ad libitum, except during the 16-hour period immediately prior to oral intubation, when food was withheld.
Selected groups of four male albino rats each were administered the undiluted test material at dose levels of 900, 1350, 2,025 and 3,038 mg. per kilogram of body weight. All doses were administered directly into the stomachs of the rats using a hypodermic syringe equipped with a ball-tipped intubating needle.
After oral administration of the test material, the rats were housed individually in suspended, wire-mesh cages and observed for the following 14 days. A necropsy was conducted on any animal which died during the study and on all animals sacrificed at the end of the 14-day observation period.
The acute oral median lethal dose (LD50) was calculated using the techniques of Weil, Thompson and Thompson and Weil as reported in the following references: […]

[2] = test system: beagle dogs; experiment: 13 week feeding study in beagle dogs; assay type: in vivo, dog
Protocol: A second feeding study was conducted for a period of 13 weeks using beagle dogs to determine the maximum concentration of the mono-n-octyltin mercaptoacetic acid esters of this invention which can be present in the food of these animals without causing any observable toxicological effect. This concentration level is referred to as the "no-effect level" by the United States Food and Drug Administration. A stabilizer of this invention mono-n-octyltin S,S',S"-tris(isooctylmercaptoacetate) was added to the food consumed by the dogs in amounts of 0, 100, 300 and 1,000 parts per million. […] This level of toxicity is considered to be unexpectedly low for an organotin compound.
The criteria employed to determine the absence of toxicological effects included general appearance, health, growth and food intake; blood analyses for enzyme activity and serum protein; kidney damage by urine analysis; change in weight of internal organs and presence of the tin compound in the kidneys, bones, brain, liver and blood.

[3] = migration from milled/pressed polyvinyl chloride sheet into extractants (colorimetric tin analysis); assay type: physicochemical; conditions: 10 days, 40° C; distilled water, 3% acetic acid, peanut oil, 10% ethanol; 1.5 parts stabilizer
Protocol: A mixture containing 100 parts of a commercially available vinyl chloride homopolymer(Solvic 223), 0.02 part of a half glycol ester -half calcium soap of montanic acid (available as Hoechst Wax OP) together with 1.5 parts of mono-n-octyltin-S,S',S"-tris(isooctylmercaptoacetate) was blended by placing the components on a 2-roll mill wherein the roll temperature was between 160° and 170° C. During the three minute milling period a continuous sheet formed around one of the rollers and was removed. The sheet measured 1.3 m.m. in thickness and about 300 cm.^2 in area. The sheet was pressed at a temperature of 170° C. to obtain a thickness of 1.2 m.m. The total pressing time, including a two minute preheating period, was five minutes. Square samples measurng 30 cm.^2 in total surface area were immersed in one of the extractants for 10 days, during which time the temperature of the extractant was maintained at 40° C. The extractants employed were distilled water, a 3% aqueous solution of acetic acid, peanut oil and a 10% by weight aqueous solution of ethanol. […] The quantity of peanut oil was 30 c.c.
The migration of stabilizer from the polyvinyl chloride sample into the extractant was determined by measuring the concentration of tin in the extractant using colormetric analysis of the tin - pyrocatechol violet complex. […]

[4] = extraction of tin from blow molded vinyl chloride polymer bottles; assay type: physicochemical; conditions: 49° C
Protocol: A number of 16 ounce (475 cc) capacity cylindrical bottles were prepared by blow molding using the following formulation: […]
The three stabilizers evaluated were n-octyltin-S,S',S"-tri(isooctyl mercaptoacetate), di-n-octyltin-S,S'-bis(isooctyl mercaptoacetate) and a mixture containing equal parts by weight of these two compounds.
The bottles were filled with the desired extractant and then placed in an oven maintained at a temperature of 49° C. for the time periods specified in the following table. A portion of the contents of the bottle was then analyzed to determine the concentration of tin.

[5] = relative acute toxicity of the isooctylmercaptoacetate derivatives; assay type: in vivo
Description: This is contrary to the generally accepted, although inaccurate, generalization that a monoalkyltin compound is less toxic than the corresponding di- and trialkyltin compounds. […] This finding directly contradicts data concerning the relative toxicities of mono-, di- and triorganotin compounds that were published prior to March, 1973, the filing date of Applicant's earliest application disclosing the present stabilizer compositions.

[6] = test system: rats; conditions: force-feeding, table of Neumann; cited from earlier work
[7] = compared with di- and trioctyltin chlorides, cited from earlier work
[8] = prior art statements; cited from earlier work
[9] = 3% Acetic Acid (aqueous), 24 hours
[10] = 3% Acetic Acid (aqueous), 48 hours
[11] = 3% Acetic Acid (aqueous), 72 hours

Row | Molecule | Tin Content [4, 9] | Tin Content [4, 10] | Tin Content [4, 11] | Tin Content ([4]; 8% Ethanol (aqueous), 24 hours) | Tin Content ([4]; 50% Ethanol, 24 hours) | Tin Content ([4]; 50% Ethanol, 48 hours) | Tin Content ([4]; 50% Ethanol, 72 hours) | Tin Content ([4]; Distilled Water, 72 hours) | Tin Content ([4]; Distilled Water, 96 hours) | Tin Content ([4]; Distilled Water, 120 hours) | Tin Content ([4]; Heptane, 6 hours) | Tin Content ([4]; Heptane, 8 hours) | Tin Content ([4]; Heptane, 10 hours) | LD50 (lethal dose for 1/2 the population) [6] | further results
1 | CCCCCCC[CH2][Sn]([S]CC(=O)OCCCCCC(C)C)([S]CC(=O)OCCCCCC(C)C)[S]CC(=O)OCCCCCC(C)C [A, mono-n-octyltin-S,S',S"--tris(isooctyl mercaptoacetate)] | 0.02 ppm | 0.03 ppm | 0.02 ppm | 0.00 ppm | 0.01 ppm | 0.02 ppm | 0.02 ppm | 0.00 ppm | 0.00 ppm | 0.00 ppm | 0.02 ppm | 0.03 ppm | 0.03 ppm | – | acute oral median lethal dose (LD50) ([1]; male albino rats, oral intubation, undiluted, 14 days observation): 2.48 g. per kilogram of weight; LD50 relative to other conventional organotin stabilizers (in words) ([1]; vs other conventional organotin compounds employed as non-toxic stabilizers): considerably higher than the values for other conventional organotin compounds; no-effect level ([2]; beagle dogs, 13 weeks, in food): 300 parts per million; no effect level (in words) ([2]; long term feeding studies): sufficiently low; amount of stabilizer extracted [3]: ≤ 0.05 mg. per square decimeter; relative acute toxicity (in words) ([5]; isooctylmercaptoacetate derivatives, mono- vs di- and tri-n-octyltin): the least toxic; toxicity relative to corresponding di-n-octyltin compound (in words) ([5]; vs di-n-octyltin compound of Gloskey patent): less toxic than the corresponding di-n-octyltin compound
2 | CCCCCCC[CH2][Sn]([CH2]CCCCCCC)([S]CC(=O)OCCCCCC(C)C)[S]CC(=O)OCCCCCC(C)C [B, di-n-octyltin-S,S'--bis(isooctyl mercaptoacetate), reference compound] | 0.00 ppm | 0.00 ppm | 0.00 ppm | 0.00 ppm | 0.03 ppm | 0.05 ppm | 0.03 ppm | 0.00 ppm | 0.00 ppm | 0.00 ppm | 0.03 ppm | 0.02 ppm | 0.02 ppm | 1975 mg per kilogram of body weight | –
3 | CCCCCCC[CH2][Sn]([Cl])([Cl])[Cl] [monooctyltin trichloride] | – | – | – | – | – | – | – | – | – | – | – | – | – | – | acute oral toxicity (relative, in words) [7]: greater than the toxicity of either dioctyltin dichloride or trioctyltin chloride; acute oral toxicity (relative, in words) ([7]; listed as mono-n-octyltin trichloride): significantly more severe than the corresponding di- or tri-n-octyltin chlorides
4 | [Cl][Sn][Cl] [stannous chloride] | – | – | – | – | – | – | – | – | – | – | – | – | – | – | toxicity (in words) [8]: relatively little, if any, toxicity
5 | bis(tri-n-octyltin) sulfate | – | – | – | – | – | – | – | – | – | – | – | – | – | greater than 6,000 mg per kilogram of body weight | –
6 | di-n-octyltin maleate | – | – | – | – | – | – | – | – | – | – | – | – | – | 4,500 mg per kilogram of body weight | –
